From PMC4995014, “Identification of ABC Transporter Interaction of a Novel Cyanoquinoline Radiotracer and Implications for Tumour Imaging by Positron Emission Tomography” (PLoS ONE, 2016) come the findings set out here.

Common to all, as to format: cell-based
The test system of one series is ABCB1 (MDR1). As to the kind of experiment: SRB cell viability assay in 3T3-MDR1 cells (ABCB1 expressing). The settings on record: mouse, 3T3-MDR1 cells (ABCB1 expressing), 72 h, SRB. Here is the method: (§1) Cell viability by the sulforhodamine B (SRB) assay was used to assess cell growth and cytotoxicity of test compounds [29]. Cells were seeded at densities of 3,500 to 5,000 cells per well in 96 well plates overnight and pre-treated for 1 h with ABC transporter modulators: 10 μM fumitremorgin C (FTC; in MCF7MX and MCF7 cells), or 0.3 μM of zosuquidar (in 3T3 and 3T3-MDR1). Cells were then treated with test compounds for 72 h, at 37°C. After drug treatment, cells were fixed by addition of 50% trichloroacetic acid (TCA), and the plates washed and dried to allow staining with 0.4% solution of sulforhodamine B (Sigma) in 1% acetic acid for 30 minutes. Excess dye was removed upon washing with 1% acetic acid. Plates were dried and bound protein was solubilised upon addition of 150 μL of 10 mM Tris base buffer. Absorbance was measured at 540 nm using Thermo Multiskan-Ex plate reader. Cell viability versus compound concentration curves were plotted as a percentage of control cells. The concentration of drug that gave 50% inhibition in cell growth (GI50) was extrapolated from these curves using the sigmoid curve fit with variable slope in Prism (GraphPad Prism version 5.01, GraphPad Software, San Diego California USA). Three to six replicate wells were used for each drug concentration and experiments were carried out on three separate occasions for each compound.

A further series concerns 3T3-MDR1 cells. The description is as above. The settings on record: GI50 3T3-MDR1 over GI50 3T3, without zosuquidar. Here is the method:
as §1

The next series concerns active mutant EGFR. As to the kind of experiment: Inhibition of EGFR autophosphorylation in active mutant EGFR expressing cell lines (H1650, PC9, H3255). Particulars: H1650 (del 746–750), PC9 (del 746–750) and H3255 (L858R) cells; read-out: IC50 p-EGFR Y1068 in active mutant EGFR expressing cell lines. The protocol:
(§2) Affinity of the cyanoquinolines for EGFR was established by measuring their inhibition of EGFR autophosphorylation via western blot. Cells were seeded in 6 well plates and following 24 h of growth, were subject to overnight serum starvation. The cells were then treated with increasing concentrations of cyanoquinolines prepared in serum free growth media from a DMSO stock (final DMSO concentration < 1%) for 3 h at 37°C, and stimulated for receptor autophosphorylation by addition of 100 ng/mL of EGF during the last 15 minutes of drug incubation. After 3 h the cells were placed on ice, media removed and then the cells were washed two times with ice cold phosphate buffered saline (PBS). Lysates were analysed by western blot to measure changes to p-EGFR Y1068.
(§3) Cell lysates were prepared by addition of radioimmunoprecipitation assay (RIPA) buffer (50mM Tris-HCl pH 7.2, 150mM NaCl, 1% NP40, 1% sodium deoxycholate, 0.1% sodium dodecyl sulfate) supplemented with 1 x protease and phosphatase inhibitor cocktail (1mM 4-(2-Aminoethyl)benzenesulfonylfluoride hydrochloride, 800 nM aprotinin, 50 μM bestatin, 15 μM E-64, 5μM EDTA, 20 μM leupeptin, 10 μM pepstatin A; Thermo scientific, Waltham, Massachusetts, USA). […] Cellular protein levels were assessed using a bicinchoninic acid (BCA) protein assay kit according to the manufacturer’s instructions (Thermo scientific). […]

A further series has as its target T1, wildtype EGFR (Homo sapiens, UniProt P00533).
T1 construct: host or cells: H358; A549
As to the kind of experiment: Inhibition of EGFR autophosphorylation in wildtype EGFR expressing A549 and H358 cells. The settings on record: read-out: IC50 p-EGFR Y1068 in wildtype EGFR expressing cells. Here is the method:
as §2, §3

For series [1], the target named is T2, wildtype EGFR (H358 cells) (Homo sapiens, UniProt P00533).
T2 construct: host or cells: H358
As to the kind of experiment: Inhibition of EGFR autophosphorylation (p-EGFR Y1068, western blot) in H358 cells. Particulars: 3 h incubation, EGF stimulated. Here is the method:
as §2, §3
A general note: In western blotting, separated proteins are transferred to a membrane and probed.

Series [2] deals with T3, EGFR Del E746-A750 (PC9 cells) (Homo sapiens, UniProt P00533, DEL746-750).
T3 construct: endogenous in cells; host or cells: PC9 (Dr Olivier Pardo, Imperial College London)
As to the kind of experiment: Inhibition of EGFR autophosphorylation (p-EGFR Y1068, western blot) in PC9 cells. Particulars: 3 h incubation, densitometry of western blots. The protocol:
as §2
(§4) Cells were collected into a microcentrifuge tube and sonicated for 30 seconds on ice. Cellular protein levels were assessed using a bicinchoninic acid (BCA) protein assay kit according to the manufacturer’s instructions (Thermo scientific). […] Samples were transferred to polyvinylidene difluoride (PVDF) membrane using Trans-Blot Turbo system BIO-RAD (Hercules, California, USA). […] The membranes were then incubated overnight with primary antibody prepared in 1% milk or 1% BSA in TBST. […] Membranes were washed a further three times for 10 minutes with TBST. […]

Series [3] deals with T4, EGFR L858R/T790M (H1975 cells) (Homo sapiens, UniProt P00533, L858R/T790M).
T4 construct: host or cells: H1975
As to the kind of experiment: Inhibition of EGFR autophosphorylation (p-EGFR Y1068, western blot) in H1975 cells. Particulars: 3 h incubation, EGF stimulated. Here is the method:
as §2, §4

For the next series, the target named is T5, EGFR L858R (H3255 cells) (Homo sapiens, UniProt P00533, L858R).
T5 construct: host or cells: H3255
As to the kind of experiment: Inhibition of EGFR autophosphorylation (p-EGFR Y1068, western blot) in H3255 cells. Particulars: 3 h incubation, EGF stimulated. The protocol: as §2, §4

T3 sequence (P00533 with tags, fused parts or gaps DEL746-750): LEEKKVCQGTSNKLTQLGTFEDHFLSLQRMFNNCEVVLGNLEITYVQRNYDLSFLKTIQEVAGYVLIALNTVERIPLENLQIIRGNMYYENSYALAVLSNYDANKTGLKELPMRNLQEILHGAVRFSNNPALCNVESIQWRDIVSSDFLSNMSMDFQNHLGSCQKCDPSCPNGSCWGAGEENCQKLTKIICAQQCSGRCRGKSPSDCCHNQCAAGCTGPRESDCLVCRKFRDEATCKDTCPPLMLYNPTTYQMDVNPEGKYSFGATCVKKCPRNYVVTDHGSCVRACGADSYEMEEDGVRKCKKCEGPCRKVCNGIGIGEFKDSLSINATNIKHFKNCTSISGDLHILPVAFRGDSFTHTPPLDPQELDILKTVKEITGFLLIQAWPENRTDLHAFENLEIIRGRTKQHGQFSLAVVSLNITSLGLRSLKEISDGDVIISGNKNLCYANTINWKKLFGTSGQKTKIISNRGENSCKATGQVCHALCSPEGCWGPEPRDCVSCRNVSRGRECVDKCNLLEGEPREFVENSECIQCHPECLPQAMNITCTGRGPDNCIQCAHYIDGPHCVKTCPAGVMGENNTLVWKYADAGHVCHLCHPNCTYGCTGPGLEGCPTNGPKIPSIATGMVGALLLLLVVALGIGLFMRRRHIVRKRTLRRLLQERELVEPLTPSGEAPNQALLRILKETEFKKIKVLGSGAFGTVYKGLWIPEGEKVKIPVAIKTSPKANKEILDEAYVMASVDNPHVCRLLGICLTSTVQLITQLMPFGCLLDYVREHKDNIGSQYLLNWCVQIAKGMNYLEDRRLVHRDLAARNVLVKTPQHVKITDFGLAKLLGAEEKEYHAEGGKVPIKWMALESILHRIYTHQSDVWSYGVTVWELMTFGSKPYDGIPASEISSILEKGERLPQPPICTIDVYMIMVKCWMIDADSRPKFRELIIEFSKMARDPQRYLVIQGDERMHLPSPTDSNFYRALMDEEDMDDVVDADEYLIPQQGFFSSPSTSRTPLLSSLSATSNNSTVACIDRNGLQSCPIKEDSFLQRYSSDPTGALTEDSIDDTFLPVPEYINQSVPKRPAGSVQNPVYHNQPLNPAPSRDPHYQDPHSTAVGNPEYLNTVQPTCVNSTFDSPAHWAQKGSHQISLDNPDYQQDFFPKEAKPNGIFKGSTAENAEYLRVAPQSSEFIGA
T5 sequence (P00533 25-1210 L858R): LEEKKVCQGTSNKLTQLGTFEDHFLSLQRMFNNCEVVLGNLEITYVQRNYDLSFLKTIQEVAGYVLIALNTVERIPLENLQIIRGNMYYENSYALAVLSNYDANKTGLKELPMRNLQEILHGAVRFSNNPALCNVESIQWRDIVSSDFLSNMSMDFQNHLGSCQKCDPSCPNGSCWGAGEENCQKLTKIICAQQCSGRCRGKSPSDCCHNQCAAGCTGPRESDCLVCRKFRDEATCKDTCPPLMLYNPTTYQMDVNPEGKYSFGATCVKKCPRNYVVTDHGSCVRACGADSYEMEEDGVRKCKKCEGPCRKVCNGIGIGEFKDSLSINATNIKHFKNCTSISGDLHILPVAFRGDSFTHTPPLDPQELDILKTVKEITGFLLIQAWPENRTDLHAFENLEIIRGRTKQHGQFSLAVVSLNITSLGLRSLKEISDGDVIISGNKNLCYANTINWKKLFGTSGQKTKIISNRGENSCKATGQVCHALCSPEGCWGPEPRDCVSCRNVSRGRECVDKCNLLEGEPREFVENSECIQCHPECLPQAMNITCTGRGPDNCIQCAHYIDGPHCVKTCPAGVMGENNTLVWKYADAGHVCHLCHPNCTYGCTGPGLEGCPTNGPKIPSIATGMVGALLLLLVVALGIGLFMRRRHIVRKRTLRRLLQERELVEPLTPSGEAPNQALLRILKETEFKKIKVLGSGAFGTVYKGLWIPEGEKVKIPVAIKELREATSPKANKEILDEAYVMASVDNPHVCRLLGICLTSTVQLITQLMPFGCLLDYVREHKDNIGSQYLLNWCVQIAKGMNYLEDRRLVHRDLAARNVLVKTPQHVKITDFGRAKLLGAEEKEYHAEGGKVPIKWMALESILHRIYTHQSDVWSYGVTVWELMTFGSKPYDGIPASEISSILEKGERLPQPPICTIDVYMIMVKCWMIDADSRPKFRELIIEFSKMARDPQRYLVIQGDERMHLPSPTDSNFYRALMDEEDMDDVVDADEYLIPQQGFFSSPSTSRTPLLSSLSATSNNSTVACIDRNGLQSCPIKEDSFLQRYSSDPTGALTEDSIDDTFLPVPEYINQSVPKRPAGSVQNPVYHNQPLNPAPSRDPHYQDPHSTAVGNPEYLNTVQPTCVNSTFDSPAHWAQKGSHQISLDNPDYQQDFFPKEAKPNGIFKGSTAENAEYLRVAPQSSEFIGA
T2 sequence (P00533 25-1210): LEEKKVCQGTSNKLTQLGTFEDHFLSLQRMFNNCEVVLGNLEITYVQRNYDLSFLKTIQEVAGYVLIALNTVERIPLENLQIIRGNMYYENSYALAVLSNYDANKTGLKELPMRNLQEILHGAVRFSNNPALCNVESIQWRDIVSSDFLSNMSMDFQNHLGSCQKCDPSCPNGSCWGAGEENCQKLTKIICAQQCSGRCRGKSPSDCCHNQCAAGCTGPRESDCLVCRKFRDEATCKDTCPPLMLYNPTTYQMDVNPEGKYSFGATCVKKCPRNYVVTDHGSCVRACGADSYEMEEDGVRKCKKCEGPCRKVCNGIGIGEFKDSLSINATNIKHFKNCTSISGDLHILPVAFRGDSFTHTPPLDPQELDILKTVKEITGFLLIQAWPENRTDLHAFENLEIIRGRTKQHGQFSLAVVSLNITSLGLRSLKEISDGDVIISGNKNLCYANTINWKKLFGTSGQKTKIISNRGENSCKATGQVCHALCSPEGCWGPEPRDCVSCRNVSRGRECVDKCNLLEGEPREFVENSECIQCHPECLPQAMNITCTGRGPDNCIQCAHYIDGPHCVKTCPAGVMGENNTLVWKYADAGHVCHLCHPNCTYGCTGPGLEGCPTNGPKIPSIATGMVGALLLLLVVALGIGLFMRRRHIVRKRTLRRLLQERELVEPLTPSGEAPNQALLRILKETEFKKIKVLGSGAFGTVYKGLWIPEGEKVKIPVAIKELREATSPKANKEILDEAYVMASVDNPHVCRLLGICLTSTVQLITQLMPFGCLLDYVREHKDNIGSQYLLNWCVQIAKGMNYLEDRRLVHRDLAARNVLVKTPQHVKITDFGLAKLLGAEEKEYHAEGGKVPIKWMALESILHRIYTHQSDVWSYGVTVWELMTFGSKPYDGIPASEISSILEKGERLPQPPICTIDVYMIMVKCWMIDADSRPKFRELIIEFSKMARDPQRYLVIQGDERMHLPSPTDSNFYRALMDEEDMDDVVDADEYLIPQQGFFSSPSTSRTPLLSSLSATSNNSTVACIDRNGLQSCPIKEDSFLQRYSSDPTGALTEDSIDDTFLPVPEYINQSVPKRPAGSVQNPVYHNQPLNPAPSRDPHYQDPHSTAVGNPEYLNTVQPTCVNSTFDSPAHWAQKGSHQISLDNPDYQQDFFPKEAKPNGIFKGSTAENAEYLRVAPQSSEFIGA
T1 sequence (P00533 25-1210): as above

As for `CCOc1cc2ncc(C#N)c(Nc3ccc(F)c(Cl)c3)c2cc1NC(=O)/C=C/CNCc1cn(CCF)nn1` [FED6, (2E)-N-{4-[(3-chloro-4-fluorophenyl)amino]-3-cyano-7-ethoxyquinolin-6-yl}-4-({[1-(2-fluoroethyl)-1H-1,2,3-triazol-4-yl]methyl}amino)-but-2-enamide], the GI50 (commonly the concentration at which growth is held to half of that of the control) at 72 h in the series on ABCB1 (MDR1) (with zosuquidar 0.3 μM (1 h pre-treatment), pre-treatment with 0.3 μM zosuquidar) is 13.6 ± 0.6 µM; in the series with ABCB1 (MDR1) (without zosuquidar) it was above 100 µM. Further, in the series on 3T3-MDR1 cells, the “fold increase in GI50 in the ABCB1 overexpressing cell line” value is above 10 fold. For the same compound, the IC50 (commonly the midpoint of a concentration-inhibition curve) in the series on active mutant EGFR was 0.008 to 0.04 µM; at wildtype EGFR, 0.6 to 0.7 µM; in series [1] it was 0.6 µM; in series [2] it was 0.022 µM; in series [3], above 1 µM; against EGFR L858R (H3255 cells) it was 0.008 µM.
